Experimental data: patent US7109225B2, “Substituted oxazole derivatives” (Hofmann-la Roche Inc., priority 2002, dated 2006)

Key:
[1] = molecular target: T1, PPARα (Homo sapiens, UniProt Q07869); experiment: Luciferase transcriptional reporter gene assay, BHK21 cells transfected with pFA-PPARα-LBD; type: cell-based; set-up: PPARα (aa 167 to 469); expressed in transfected cells; host or cells: BHK21 (ATCC CCL10); conditions: Gal4-PPARα-LBD
T1 sequence (Q07869 167-468 limits assumed): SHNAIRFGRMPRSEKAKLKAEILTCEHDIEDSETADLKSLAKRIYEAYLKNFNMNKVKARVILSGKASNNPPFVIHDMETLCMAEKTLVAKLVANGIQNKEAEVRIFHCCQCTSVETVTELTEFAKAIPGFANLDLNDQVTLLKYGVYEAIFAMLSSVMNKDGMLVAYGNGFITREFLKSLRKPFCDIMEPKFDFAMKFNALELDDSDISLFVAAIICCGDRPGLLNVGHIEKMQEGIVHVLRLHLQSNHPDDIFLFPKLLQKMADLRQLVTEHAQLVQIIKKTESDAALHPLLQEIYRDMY
Source text: (§1) Full-length cDNA clones for human PPARα and mouse PPARγ were obtained by RT-PCR from human adipose and mouse liver cRNA, respectively, cloned into plasmid vectors and verified by DNA sequencing. […] To accomplish this, the portions of the cloned sequences encoding the LBDs were amplified from the full-length clones by PCR and then subcloned into the plasmid vectors. Final clones were verified by DNA sequence analysis.
(§2) Luciferase Transcriptional Reporter Gene Assays
(§3) Baby hamster kidney cells (BHK21 ATCC CCL10) were grown in DMEM medium containing 10% FBS at 37° C. in a 95%02:5%CO2 atmosphere. Cells were seeded in 6 well plates at a density of 10^5 Cells/well and then batch-transfected with either the pFA-PPARγ-LBD or pFA-PPARα-LBD expression plasmids plus a reporter plasmid and an expression plasmid encoding the secretable form of alkaline phosphatase (SEAP) as a normalization control. […] Six hours following transfection, the cells were harvested by trypsinization and seeded in 96 well plates at a density of 10^4 cells/well. After 24 hours to allow attachment of cells, the medium was removed and replaced with 100 ul of phenol red-free medium containing the test substances or control ligands (final DMSO concentration: 0.1%). Following incubation of the cells for 24 hours with substances, 50 ul of the supernatant was recovered and analyzed for SEAP activity (Roche Molecular Biochemicals). The remainder of the supernatant was discarded, 50 ul PBS was added per well followed by one volume of Luciferase Constant-Light Reagent (Roche Molecular Biochemicals) to lyse the cells and initiate the luciferase reaction. Luminescence for both SEAP and luciferase was measured in a Packard TopCount. Luciferase activity was normalized to the SEAP control and transcriptional activation in the presence of a test substance was expressed as fold-activation over cells incubated in the absence of the substance. EC50 values were calculated using the XLfit program (ID Business Solutions Ltd. UK).

[2] = molecular target: T2, PPARγ (Mus musculus, UniProt P37238); experiment: Radioligand binding assay (scintillation proximity), GST-PPARγ-LBD fusion protein; set-up: PPARγ (aa 174 to 476); conditions: radioligand binding (SPA)
T2 sequence (P37238 204-505): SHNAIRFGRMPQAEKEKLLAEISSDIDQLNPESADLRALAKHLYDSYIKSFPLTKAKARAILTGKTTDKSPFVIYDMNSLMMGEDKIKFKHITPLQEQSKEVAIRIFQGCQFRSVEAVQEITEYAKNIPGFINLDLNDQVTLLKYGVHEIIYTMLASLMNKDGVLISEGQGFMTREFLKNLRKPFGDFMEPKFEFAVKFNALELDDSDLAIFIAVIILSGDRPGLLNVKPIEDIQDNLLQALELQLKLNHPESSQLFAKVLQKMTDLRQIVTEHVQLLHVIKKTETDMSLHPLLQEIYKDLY
Source text: Background information on the performed assays can be found in: Nichols J S et al. “Development of a scintillation proximity assay for peroxisome proliferator-activated receptor gamma ligand binding domain”, (1998) Anal. Biochem. 257: 112–119.
(§4) Full-length cDNA clones for human PPARα and mouse PPARγ were obtained by RT-PCR from human adipose and mouse liver cRNA, respectively, cloned into plasmid vectors and verified by DNA sequencing. Bacterial and mammalian expression vectors were constructed to produce glutathione-s-transferase (GST) and Gal4 DNA binding domain proteins fused to the ligand binding domains (LBD) of PPARγ (aa 174 to 476) and PPARα (aa 167 to 469). To accomplish this, the portions of the cloned sequences encoding the LBDs were amplified from the full-length clones by PCR and then subcloned into the plasmid vectors. Final clones were verified by DNA sequence analysis.
(§5) Induction, expression, and purification of GST-LBD fusion proteins were performed in E. coli strain BL21 (pLysS) cells by standard methods (Ref: Current Protocols in Molecular Biology, Wiley Press, edited by Ausubel et al.).
(§6) Radioligand Binding Assay
PPARγ receptor binding was assayed in TKE50 (50 mM Tris-HCl, pH 8, 50 mM KCl, 2 mM EDTA, 0.1 mg/ml fatty acid-free BSA and 10 mM DTT). For each 96 well reaction an 140 ng equivalent of GST-PPARγ-LBD fusion protein was bound to 10 ug SPA beads (PharmaciaAmersham) in a final volume of 50 ul by shaking. The resulting slurry was incubated for 1 h at RT and centrifuged for 2 min at 1300 g. The supernatant containing unbound protein was removed and the semidry pellet containig the recptor-coated beads was resolved in 50 ul of TKE. For radioligand binding e.g. 10000 dpm 2(S)-(2-benzoyl-phenylamino)-3-{4-[1,1-ditritio-2-(5-methyl-2-phenyl-oxazol-4-yl)-ethoxy]-phenyl}-propionic acid in 50 ul were added, the reaction incubated at RT for 1 h and scintillation proximity counting performed. All binding assays were performed in 96 well plates and the amount of bound ligand measured on a Packard TopCount using OptiPlates (Packard). Nonspecific binding was determined in the presence of 10^−4 M unlabelled compound. Dose response curves were done in triplicates within a range of concentration from 10^−10 M to 10^−4 M.

[3] = molecular target: T2, PPARγ; experiment: Luciferase transcriptional reporter gene assay, BHK21 cells transfected with pFA-PPARγ-LBD; type: cell-based; set-up: PPARγ (aa 174 to 476); expressed in transfected cells; host or cells: BHK21 (ATCC CCL10); conditions: Gal4-PPARγ-LBD
Source text: as §4, §2, §3

[4] = molecular target: T1, PPARα; experiment: Radioligand binding assay, GST-PPARα-LBD fusion protein; set-up: PPARα (aa 167 to 469)
Source text: as §1, §5, §6
PPARα receptor binding was assayed in TKE10 (10 mM Tris-HCl, pH 8, 50 mM KCl, 2 mM EDTA, 0.1 mg/ml fatty acid free BSA and 10 mM DTT). […]
PPARγ receptor binding was assayed in TKE50 (50 mM Tris-HCl, pH 8, 50 mM KCl, 2 mM EDTA, 0.1 mg/ml fatty acid-free BSA and 10 mM DTT). […] All binding assays were performed in 96 well plates and the amount of bound ligand measured on a Packard TopCount using OptiPlates (Packard). Nonspecific binding was determined in the presence of 10^−4 M unlabelled compound. […]

Row | melting point [°C] | EC50 [1] [µM] | IC50 [2] [µM] | EC50 [3] [µM] | IC50 [4] [µM] | Compound
1 | 103 to 105 | 0.035 | 0.153 | 0.237 | 0.053 | CCO[C@@H](Cc1ccc(OCCc2nc(C(C)(C)C)oc2C)c2ccccc12)C(=O)O [Example 1, (S)-3-{4-[2-(2-tert-Butyl-5-methyl-oxazol-4-yl)-ethoxy]-naphthalen-1-yl}-2-ethoxy-propionic acid]
2 | 159 to 160 | 0.027 | 0.069 | 0.019 |  | Cc1oc(C(C)(C)C)nc1CCOc1ccc(CC(OC(C)C)C(=O)O)c2sccc12 (stereo not shown) [Example 8, 3-{4-[2-(2-tert-Butyl-5-methyl-oxazol-4-yl)-ethoxy]-benzo[b]thiophen-7-yl}-2-isopropoxy-propionic acid]
3 | 61 to 63 | 0.062 | 0.202 | 0.08 |  | CCCOC(Cc1ccc(OCCc2nc(C3CC3)oc2C)c2ccsc12)C(=O)O (stereo not shown) [Example 31, 3-{4-[2-(2-Cyclopropyl-5-methyl-oxazol-4-yl)-ethoxy]-benzo[b]thiophen-7-yl}-2-propoxy-propionic acid]
4 |  | 0.006 | 0.162 | 0.067 |  | CCCOC(Cc1ccc(OCCc2nc(CC(C)(C)C)oc2C)c2ccccc12)C(=O)O (stereo not shown) [Example 33, 3-(4-{2-[2-(2,2-Dimethyl-propyl)-5-methyl-oxazol-4-yl]-ethoxy}-naphthalen-1-yl)-2-propoxy-propionic acid]
